Experimental data: US4317768A, “Dihydropyridine derivatives as stabilizers for vinyl chloride polymers” (priority 1977, dated 1982)
“And” between values parts separate entries of the source, which are not always exact repeats. Identical values can stand only once.

Assays:
[1] = Static thermostability (GARDNER method), rigid PVC sheets, 210° C., 0.3 part stabilizer; settings: 0 min
Procedure, shortened: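 Rigid sheets calendered at 160° C. from powdered PVC resin with 0.3 part by weight stabilizer (dihydropyridine or 2-phenyl-indole reference) plus usual ingredients. Sheets heated in oven at 210° C., removed every three minutes over 21 minutes until incipient carbonization. Coloration scored against GARDNER scale reference figures.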

[2] = Static thermostability (GARDNER method), rigid PVC sheets, 185° C., 0.3 part stabilizer
Procedure, shortened: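 Rigid PVC sheets, calendered at 160° C with 0.3 part stabilizer and usual additives, were heated at 185° C. Samples came out every 6 min to 24 min, then every 3 min up to 42 min or carbonization, and colour was scored on the GARDNER scale.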

[3] = Comparison with 2-phenyl-indole, vinyl chloride-vinylidene chloride co-polymer, 210° C.; settings: 0.3 part
Procedure: A second test was made using the following compound:
The sheets were heated in a ventilated oven at 210° C. and the following results were obtained: […]

[4] = Photostabilizing power, sheets exposed to the sun, rigid co-polymer (b)
Procedure: (§1) The sheets were exposed to the sun and their colorations were also determined according to the GARDNER method.

[5] = Colour of the resin after each passage in a blower-extruder
Procedure: (2) Examination of the colour of the resin after each passage (3 in all) in a blower-extruder, the mould being a 250 ml cylindrical flask.
Four resins where tested, the first containing 0.2% of 2-phenyl-indole and the others 0.2%, 0.03% and 0.015% of compound 1 respectively.

[6] = Photostabilizing power, PVC plates exposed to the sun, GARDNER scale; settings: exposure to sun 6h
Procedure: The photostabilizing power of the compounds of the invention was studied by exposing to the sun polyvinyl chloride plates which had been stabilized either by a dihydropyridine of the invention or by 2-phenyl-indole, or again by 2-(3'-methoxy-4'-hydroxy)-indole. This last product is an extremely valuable thermostabilizer for thermoplastic resins and is described in British Pat. No. 1,489,685.
The resin given hereunder was prepared by mixing on cylinders at 160° C.:
The plates of stabilized polyvinyl chloride, together with a plate which had not been stabilized, were stood in the sun under the same conditions and at the same time. Their colour was measured after 6 hours and 12 hours of exposure.
The coloration of the plates was determined according to two methods:
On the plates themselves, following the GARDNER scale, as in the section on thermostability,
The sign + means that the coloration lies between the lower unit and the upper half-unit. Thus, 3+ means that the coloration lies between 3 and 3.5. Similarly, the sign - means that the coloration lies between the lower half-unit and the upper unit.

[7] = Photostabilizing power, sheets exposed to the sun, co-polymer (a)
Procedure: as §1

[8] = Static thermostability (GARDNER method), rigid PVC sheets, 185° C., equimolecular quantities; settings: 1.55×10^-3 mol
Procedure: This study was carried out according to the GARDNER method, described in British Pat. No. 1,489,685.
The reference substance was 2-phenyl-indole, a well-known and widely used stabilizer.
The stabilizer (dihydropyridine or 2-phenyl-indole) and the other usual ingredients were mixed with powdered vinyl resins and the mixtures were calendered at a temperature of 160° C. to give rigid sheets.
The sheets were then heated in a thermostated oven (185° C. or 210° C.) for different intervals of time until incipient carbonization.
The coloration of the samples was compared to a standard scale of coloration, known as the GARDNER scale and was expressed in terms of the reference figures of the GARDNER scale.
This study was carried out with the following resin:
Polyvinyl chloride resin
SL 2016 is a solution of zinc-2-ethyl-hexanoate in a mixture of hydrocarbons boiling between 158° C. and 184° C.
Finally, a trail was performed at 185° C., with resins containing equimolecular quantities of the dihydropyridines or of 2-phenyl-indole, namely 1.55×10^-3 mol. In this case too, the samples were removed from the oven every 6 minutes over a period of 24 minutes and then every 3 minutes until the 42nd minute (or until carbonization).

[9] = Comparison with 2-phenyl-indole, vinyl chloride-vinyl acetate co-polymer, 185° C.; settings: 0.3 part
Procedure: (c) Comparison with 2-phenyl-indole
A comparative test was made using the following compound:
The sheets were heated in a ventilated oven at 185° C. and the following results were obtained: […]

SMILES: c1ccc(-c2cc3ccccc3[nH]2)cc1 [2-Phenyl-indole, 2-phenyl-indole, reference compound]
- coloration, GARDNER scale [1]: 1
- coloration, GARDNER scale ([2]; 0 min): 1
- coloration, GARDNER scale ([2]; 6 min): 1
- coloration, GARDNER scale ([2]; 12 min): 3 and 4 and 5
- coloration, GARDNER scale ([2]; 24 min): 13 and 11
- coloration, GARDNER scale ([2]; 27 min): 14 and 13
- coloration, GARDNER scale ([2]; 30 min): 15 and 14
- coloration, GARDNER scale ([2]; 33 min): 15 and 14
- coloration, GARDNER scale ([2]; 36 min): 16 and 14 and 15
- coloration, GARDNER scale ([2]; 39 min): 16 and 15
- coloration, GARDNER scale ([3]; 0 min): 2 and 1
- coloration, GARDNER scale ([3]; 3 min): 2 and 1
- coloration, GARDNER scale ([3]; 6 min): 5 and 4
- coloration, GARDNER scale ([3]; 9 min): 8.5 and 10
- coloration, GARDNER scale ([3]; 12 min): 14 and 15
- coloration, GARDNER scale ([3]; 15 min): 16
- Colour in GARDNER degrees ([4]; After 24 hours): 17 GARDNER degrees and 13 GARDNER degrees
- Colour in GARDNER degrees ([4]; Time 0): 1.5 GARDNER degrees and 1 GARDNER degrees
- colour of the flask ([5]; after the second passage): blue color tending towards green
- colour of the flask ([5]; after the third passage): greenish-blue
- Coloration of the plates GARDNER [6]: 3
- Colour in GARDNER degrees ([7]; After 24 hours): 6 GARDNER degrees and 8 GARDNER degrees
- Colour in GARDNER degrees ([7]; Time 0): 1 GARDNER degrees
- coloration, GARDNER scale ([8]; 0 min): 1
- coloration, GARDNER scale ([8]; 6 min): 2
- coloration, GARDNER scale ([8]; 12 min): 3
- coloration, GARDNER scale ([8]; 18 min): 10
- coloration, GARDNER scale ([8]; 24 min): 13
- coloration, GARDNER scale ([8]; 27 min): 14
- coloration, GARDNER scale ([8]; 30 min): 14
- coloration, GARDNER scale ([8]; 33 min): 14
- coloration, GARDNER scale ([8]; 36 min): 16
- coloration, GARDNER scale ([8]; 39 min): 16
- coloration, GARDNER scale ([8]; 42 min): Burnt
- coloration, GARDNER scale ([9]; 0 min): 1
- coloration, GARDNER scale ([9]; 2 min): 1
- coloration, GARDNER scale ([9]; 4 min): 2
- coloration, GARDNER scale ([9]; 6 min): 3
- coloration, GARDNER scale ([9]; 8 min): 8
- coloration, GARDNER scale ([9]; 10 min): 12
- coloration, GARDNER scale ([9]; 12 min): 14
- coloration, GARDNER scale ([9]; 14 min): 17
